# Target: PIK3CG (human) (UniProt P48736)
# Test: Assessment of PIK3CG Kinase Activity
# Chain of PIK3CG (human) (P48736 whole entry, looked up): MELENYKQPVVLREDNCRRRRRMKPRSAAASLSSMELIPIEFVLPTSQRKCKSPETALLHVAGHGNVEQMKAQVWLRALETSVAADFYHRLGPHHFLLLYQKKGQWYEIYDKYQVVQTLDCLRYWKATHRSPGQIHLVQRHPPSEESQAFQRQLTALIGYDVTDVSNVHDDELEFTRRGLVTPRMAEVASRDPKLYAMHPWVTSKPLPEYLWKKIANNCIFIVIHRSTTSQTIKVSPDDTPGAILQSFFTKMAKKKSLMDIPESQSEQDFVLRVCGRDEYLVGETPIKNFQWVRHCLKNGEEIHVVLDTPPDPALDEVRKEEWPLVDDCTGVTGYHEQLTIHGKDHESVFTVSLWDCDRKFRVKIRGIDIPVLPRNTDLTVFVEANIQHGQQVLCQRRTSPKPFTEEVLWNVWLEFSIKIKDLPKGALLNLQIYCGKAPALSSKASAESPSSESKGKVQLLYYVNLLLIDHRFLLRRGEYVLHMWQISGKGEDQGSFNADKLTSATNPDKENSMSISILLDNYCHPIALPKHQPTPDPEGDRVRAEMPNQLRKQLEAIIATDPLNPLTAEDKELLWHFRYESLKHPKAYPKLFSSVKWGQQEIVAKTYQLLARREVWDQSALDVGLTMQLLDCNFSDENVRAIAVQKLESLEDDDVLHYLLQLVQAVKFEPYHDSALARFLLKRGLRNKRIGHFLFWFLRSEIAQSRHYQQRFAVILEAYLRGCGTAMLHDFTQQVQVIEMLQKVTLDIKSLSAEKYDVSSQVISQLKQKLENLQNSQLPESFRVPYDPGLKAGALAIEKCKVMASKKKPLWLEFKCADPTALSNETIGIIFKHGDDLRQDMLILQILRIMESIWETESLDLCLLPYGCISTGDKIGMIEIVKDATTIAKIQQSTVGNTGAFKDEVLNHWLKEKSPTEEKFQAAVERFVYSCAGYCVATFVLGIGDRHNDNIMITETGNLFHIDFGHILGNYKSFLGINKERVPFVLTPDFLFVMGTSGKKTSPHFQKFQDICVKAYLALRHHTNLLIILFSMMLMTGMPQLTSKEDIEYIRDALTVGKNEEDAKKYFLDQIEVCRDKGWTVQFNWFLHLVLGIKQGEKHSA
row,SMILES,IC50 [nM]
1,CC(C)N1CC(=O)N(C)c2cnc(Nc3cccc(S(=O)(=O)CCN4CCN(C)CC4)c3)nc21,< 800
2,CC(C)N1CC(=O)N(C)c2cnc(Nc3cc(NC(=O)[C@@H](N)c4ccccc4)cc(S(C)(=O)=O)c3)nc21,< 800
3,CC(C)N1CC(=O)N(C)c2cnc(Nc3cc(C(N)=O)cc(C(F)(F)F)c3)nc21,< 800
4,CC(C)N1CC(=O)N(C)c2cnc(Nc3cc(NC(=O)N[C@H]4CCN(C5CCCC5)C4)cc(S(C)(=O)=O)c3)nc21,< 800
5,CC(C)N1CC(=O)N(C)c2cnc(Nc3cccc(S(=O)(=O)CCO)c3)nc21,< 800
6,CC(C)N1CC(=O)N(C)c2cnc(Nc3cc(NC(=O)N[C@H]4CCN(C5CCCC5)C4)cc(S(N)(=O)=O)c3)nc21,< 800
7,CC(C)N1CC(=O)N(C)c2cnc(Nc3cc(C(=O)NCCCN(C)C)cc(S(C)(=O)=O)c3)nc21,< 800
8,CN1C(=O)CN(c2ccccc2)c2nc(Nc3cccc(S(=O)(=O)CCNC4CC4)c3)ncc21,< 800
9,CC(C)N1CC(=O)N(C)c2cnc(Nc3cc(C(=O)NCCN(C)C)cc(S(C)(=O)=O)c3)nc21,< 800
10,CC(C)N1CC(=O)N(C)c2cnc(Nc3cc(NC(=O)N[C@H]4CCN(C(=O)OC(C)(C)C)C4)cc(S(C)(=O)=O)c3)nc21,< 800
11,Cc1cccc(CC(=O)Nc2cc(Nc3ncc4c(n3)N(C(C)C)CC(=O)N4C)cc(S(C)(=O)=O)c2)c1,< 800
12,Cc1oncc1C(=O)Nc1cc(Nc2ncc3c(n2)N(C(C)C)CC(=O)N3C)cc(S(C)(=O)=O)c1,< 800
13,Cc1c[nH]c(CCNC(=O)c2cc(Nc3ncc4c(n3)N(C(C)C)CC(=O)N4C)cc(NS(C)(=O)=O)c2)n1,< 800
14,Cc1cc(CNC(=O)Nc2cc(Nc3ncc4c(n3)N(C(C)C)CC(=O)N4C)cc(S(C)(=O)=O)c2)n[nH]1,< 800
15,CC(C)N1CC(=O)N(C)c2cnc(Nc3cc(C(=O)NCCC4CCCN4C)cc(C(F)(F)F)c3)nc21 (stereo not drawn),< 800
16,CC(C)N1CC(=O)N(C)c2cnc(Nc3cc(N(C)C(=O)Cc4ccccc4)cc(S(C)(=O)=O)c3)nc21,< 800
17,CCC(C(=O)Nc1cc(Nc2ncc3c(n2)N(C(C)C)CC(=O)N3C)cc(S(C)(=O)=O)c1)c1ccccc1 (stereo not drawn),< 800
18,CC(C)N1CC(=O)N(C)c2cnc(Nc3cc(NS(=O)(=O)Cc4ccccc4)cc(S(C)(=O)=O)c3)nc21,< 800
19,CC(C)N1CC(=O)N(C)c2cnc(Nc3cc(C(=O)NCCN4CCNC4=O)cc(S(C)(=O)=O)c3)nc21,< 800
20,CC(C)N1CC(=O)N(C)c2cnc(Nc3cc(C(=O)NCCc4ccncc4)cc(S(C)(=O)=O)c3)nc21,< 800
21,CNC(=O)c1cc(Nc2ncc3c(n2)N(C(C)C)CC(=O)N3C)cc(S(C)(=O)=O)c1,< 800
22,CC(C)N1CC(=O)N(C)c2cnc(Nc3cc(NC(=O)C[C@@H]4CCNC4)cc(S(C)(=O)=O)c3)nc21,< 800
23,CC(C)N1CC(=O)N(C)c2cnc(Nc3cc(NS(C)(=O)=O)cc(C(=O)NCc4ccncc4)c3)nc21,< 800

row,SMILES,IC50 [nM]
1,CC(C)N1CC(=O)N(C)c2cnc(Nc3cc(C(=O)NC4CCN(C)CC4)cc(S(C)(=O)=O)c3)nc21,< 800
2,CC(C)N1CC(=O)N(C)c2cnc(Nc3cc(NS(=O)(=O)c4ccc(F)cc4)cc(S(N)(=O)=O)c3)nc21,< 800
3,CC[C@@H]1CN(c2cccc(Nc3ncc4c(n3)N(C(C)C)CC(=O)N4C)c2)C(=O)CN1C,< 800
4,CC(C)N1CC(=O)N(C)c2cnc(Nc3cc(NC(=O)O[C@H]4CCN(C5CCCC5)C4)cc(S(C)(=O)=O)c3)nc21,< 800
5,CC(C)N1CC(=O)N(C)c2cnc(Nc3cc(Nc4ccc(CN5CCN(C)CC5)cc4)cc(S(C)(=O)=O)c3)nc21,< 800
6,CC(C)N1CC(=O)N(C)c2cnc(Nc3cc(C(=O)NCCN4CCNC4=O)cc(C(F)(F)F)c3)nc21,< 800
7,CC(C)N1CC(=O)N(C)c2cnc(Nc3cc(NC(=O)c4csc5ccccc45)cc(S(C)(=O)=O)c3)nc21,< 800
8,CC(C)N1CC(=O)N(C)c2cnc(Nc3cc(NC(=O)C4CNCCO4)cc(S(C)(=O)=O)c3)nc21 (stereo not drawn),< 800
9,CC(C)N1CC(=O)N(C)c2cnc(Nc3cc(NC(=O)NCCCN(C)C)cc(S(C)(=O)=O)c3)nc21,< 800
10,CC(C)N1CC(=O)N(C)c2cnc(Nc3cc(C(=O)NCc4ccncc4)cc(S(C)(=O)=O)c3)nc21,< 800
11,CC(C)N1CC(=O)N(C)c2cnc(Nc3cc(N(C)C(=O)N[C@H]4CCN(C5CCCC5)C4)cc(S(C)(=O)=O)c3)nc21,< 800
12,CC(C)N1CC(=O)N(C)c2cnc(Nc3cc(NC(=O)Cc4cccc(F)c4)cc(S(C)(=O)=O)c3)nc21,< 800
13,CC(C)N1CC(=O)N(C)c2cnc(Nc3cc(NC(=O)[C@@H]4CCN(C5CCCC5)C4)cc(S(C)(=O)=O)c3)nc21,< 800
14,CC(C)N1CC(=O)N(C)c2cnc(Nc3cc(NC(=O)N(C)C[C@H]4CCCN4C4CCCC4)cc(S(C)(=O)=O)c3)nc21,< 800
15,CNCCS(=O)(=O)c1cccc(Nc2ncc3c(n2)N(C(C)C)CC(=O)N3C)c1,< 800
16,CC(C)N1CC(=O)N(C)c2cnc(Nc3cc(N(C)C(=O)Nc4ccccc4)cc(S(C)(=O)=O)c3)nc21,< 800
17,CC(C)N1CC(=O)N(C)c2cnc(Nc3cc(NC(=O)NC[C@H]4CCCN4C4CCCC4)cc(S(C)(=O)=O)c3)nc21,< 800
18,CC(C)N1CC(=O)N(C)c2cnc(Nc3cc(NS(=O)(=O)c4cccnc4)cc(S(C)(=O)=O)c3)nc21,< 800
19,CC(C)N1CC(=O)N(C)c2cnc(Nc3cccc(S(=O)(=O)CCNC4CCC4)c3)nc21,< 800
20,CC(C)N1CC(=O)N(C)c2cnc(Nc3cc(N(C)C(=O)N[C@@H](C)c4ccccc4)cc(S(C)(=O)=O)c3)nc21,< 800
21,COc1ccc2[nH]c(CC(=O)Nc3cc(Nc4ncc5c(n4)N(C(C)C)CC(=O)N5C)cc(S(C)(=O)=O)c3)cc2c1,< 800
22,CC(C)N1CC(=O)N(C)c2cnc(Nc3cc(NS(=O)(=O)c4cccnc4)cc(S(N)(=O)=O)c3)nc21,< 800

# Now from value to compound:
row,IC50 [nM],SMILES
1,< 800,CNC(=O)Nc1cc(Nc2ncc3c(n2)N(C(C)C)CC(=O)N3C)cc(S(C)(=O)=O)c1
2,< 800,CC(C)N1CC(=O)N(C)c2cnc(Nc3cc(NC(=O)N[C@H]4CC[C@@H](N(C)C)CC4)cc(S(C)(=O)=O)c3)nc21
3,< 800,CC(C)N1CC(=O)N(C)c2cnc(Nc3cc(NC(=O)Cc4c[nH]c5ccccc45)cc(S(C)(=O)=O)c3)nc21
4,< 800,CC(C)N1CC(=O)N(C)c2cnc(Nc3cc(NC(=O)N[C@@H]4CCN(C5CCCC5)C4)cc(S(N)(=O)=O)c3)nc21
5,< 800,CC(C)N1CC(=O)N(C)c2cnc(Nc3cc(NC(=O)Cc4ccsc4)cc(S(C)(=O)=O)c3)nc21
6,< 800,CC(C)N1CC(=O)N(C)c2cnc(Nc3cc(NS(C)(=O)=O)cc(C(=O)NCCC4CCCN4C)c3)nc21 (stereo not drawn)
7,< 800,CC(C)N1CC(=O)N(C)c2cnc(Nc3cc(NC(=O)Cc4noc5ccccc45)cc(S(C)(=O)=O)c3)nc21
8,< 800,CC(C)N1CC(=O)N(C)c2cnc(Nc3cc(NC(=O)NC[C@H]4CCCN4c4ccncc4)cc(S(C)(=O)=O)c3)nc21
9,< 800,CC(C)N1CC(=O)N(C)c2cnc(Nc3cc(NC(=O)NC[C@H]4CCNC4)cc(S(C)(=O)=O)c3)nc21
10,< 800,CC(C)N1CC(=O)N(C)c2cnc(Nc3cc(NC(=O)NCc4ccncc4)cc(S(C)(=O)=O)c3)nc21
11,< 800,CC(C)N1CC(=O)N(C)c2cnc(Nc3cccc(S(=O)(=O)CCN4CCOCC4)c3)nc21
12,< 800,CC(C)N1CC(=O)N(C)c2cnc(Nc3cc(NC(=O)N[C@H]4CC[C@@H](N)CC4)cc(S(C)(=O)=O)c3)nc21
13,< 800,CCN1CCCC1CNC(=O)c1cc(Nc2ncc3c(n2)N(C(C)C)CC(=O)N3C)cc(NS(C)(=O)=O)c1 (stereo not drawn)
14,< 800,CC(C)N1CC(=O)N(C)c2cnc(Nc3cc(NC(=O)[C@@H](C)c4ccccc4)cc(S(C)(=O)=O)c3)nc21
15,< 800,CC(C)N1CC(=O)N(C)c2cnc(Nc3cc(NC(=O)O[C@@H]4CCN(C5CCCC5)C4)cc(S(C)(=O)=O)c3)nc21
16,< 800,CC(C)N1CC(=O)N(C)c2cnc(Nc3cc(C(N)=O)cc(S(C)(=O)=O)c3)nc21
17,< 800,CC(C)N1CC(=O)N(C)c2cnc(Nc3cc(NC(=O)CC4CC4)cc(S(C)(=O)=O)c3)nc21
18,< 800,CCS(=O)(=O)c1cccc(Nc2ncc3c(n2)N(C2CCCCC2)CC(=O)N3C)c1
19,< 800,CN=[S@@](C)(=O)c1cccc(Nc2ncc3c(n2)N(C(C)C)CC(=O)N3C)c1
20,< 800,CC(C)N1CC(=O)N(C)c2cnc(Nc3cc(NC(=O)CCC4CCCC4)cc(S(C)(=O)=O)c3)nc21
21,< 800,CC(C)N1CC(=O)N(C)c2cnc(Nc3cccc(S(=O)(=O)C(C)C)c3)nc21
22,< 800,Cc1cc(CC(=O)Nc2cc(Nc3ncc4c(n3)N(C(C)C)CC(=O)N4C)cc(S(C)(=O)=O)c2)on1
23,< 800,CC(C)N1CC(=O)N(C)c2cnc(Nc3cc(NC(=O)[C@H](N)c4ccccc4)cc(S(C)(=O)=O)c3)nc21
24,< 800,CC(C)N1CC(=O)N(C)c2cnc(Nc3cc(NC(=O)N(C)C[C@@H]4CCCN4C4CCCC4)cc(S(C)(=O)=O)c3)nc21
25,< 800,CC(C)N1CC(=O)N(C)c2cnc(Nc3cc(NC(=O)[C@@H]4CCNC4)cc(S(C)(=O)=O)c3)nc21
26,< 800,CC(C)N1CC(=O)N(C)c2cnc(Nc3cc(NC(=O)C4CN(C5CCCC5)CCO4)cc(S(C)(=O)=O)c3)nc21 (stereo not drawn)
27,< 800,CC(C)CCC(=O)Nc1cc(Nc2ncc3c(n2)N(C(C)C)CC(=O)N3C)cc(S(C)(=O)=O)c1
28,< 800,CC(C)N1CC(=O)N(C)c2cnc(Nc3cc(NC(=O)C[C@H]4CCN(C5CCCC5)C4)cc(S(C)(=O)=O)c3)nc21
